Laboratory results taken from patent US12084430B2, “Tricyclic urea compounds as JAK2 V617F inhibitors” (Incyte Corporation, priority 2022, dated 2024).
Where two headings read alike, the source gives them in different places.

Assays:
[1] = In vitro intrinsic clearance; assay type: in vitro ADME; details: human liver microsomes, 1 μM
Summary of the method: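 Compound at 1 μM was incubated at 37° C with human liver microsomes (0.5 mg protein/mL) and 2 mM NADPH in pH 7.4 phosphate buffer, sampled at 0–30 min and analysed by LC-MS/MS. CLint was derived from t1/2 of depletion and scaled to human hepatic clearance with the well-stirred model (Q 20 mL·min^−1·kg^−1).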

TRKA [2] = test: TRKA enzymatic assay; assay type: biochemical
Summary of the method: (§1)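 The reaction mix held 0.58 nM TRKA, 1 mM ATP and 500 nM biotinylated TK substrate in 50 mM HEPES pH 7.0 with 10 mM MgCl2, 1 mM DTT and 0.5% DMSO, run 60 min at room temperature. Product was detected by TR-FRET as the 665/620 nm ratio. IC50 was fitted from % control activity versus log concentration, using DMSO-only and no-ATP wells as controls.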

TRKA [3] = target: TRKA (Homo sapiens, UniProt P04629); test: TRKA enzymatic assay; assay type: biochemical; details: 1 mM ATP
Sequence of TRKA (Homo sapiens, UniProt P04629) (P04629 33-796, species assumed): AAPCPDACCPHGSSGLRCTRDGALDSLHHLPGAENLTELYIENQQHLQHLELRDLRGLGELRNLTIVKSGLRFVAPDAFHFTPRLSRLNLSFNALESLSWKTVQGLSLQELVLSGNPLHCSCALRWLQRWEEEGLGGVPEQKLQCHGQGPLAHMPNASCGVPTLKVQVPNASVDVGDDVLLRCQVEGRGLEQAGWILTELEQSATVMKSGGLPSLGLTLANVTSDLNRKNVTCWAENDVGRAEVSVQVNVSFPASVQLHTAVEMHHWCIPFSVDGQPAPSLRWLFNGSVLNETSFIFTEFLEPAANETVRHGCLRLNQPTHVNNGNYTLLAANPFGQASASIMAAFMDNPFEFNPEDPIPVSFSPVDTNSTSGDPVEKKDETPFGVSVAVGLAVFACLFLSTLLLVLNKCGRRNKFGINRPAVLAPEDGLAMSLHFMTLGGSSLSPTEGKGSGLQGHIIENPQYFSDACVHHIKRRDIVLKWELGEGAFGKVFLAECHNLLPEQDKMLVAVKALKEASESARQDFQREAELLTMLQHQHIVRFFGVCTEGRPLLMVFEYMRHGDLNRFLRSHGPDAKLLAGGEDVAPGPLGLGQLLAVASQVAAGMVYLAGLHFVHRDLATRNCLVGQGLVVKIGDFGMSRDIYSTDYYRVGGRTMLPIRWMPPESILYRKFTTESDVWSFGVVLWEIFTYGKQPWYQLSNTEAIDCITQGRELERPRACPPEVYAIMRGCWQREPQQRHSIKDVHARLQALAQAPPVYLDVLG
Summary of the method: as §1

[4] = target: T1, pseudo-kinase domain (JH2) of human V617F mutant JAK2 (Homo sapiens, UniProt O60674, F794H/V617F/W659A/W777A); test: JAK2 LanthaScreen JH2-V617F binding assay; details: read-out: JH2 V617F Bind IC50
T1 construct: pseudo-kinase domain (JH2, amino-acids 536-812 with 3 surface mutations W659A, W777A, F794H); His (C); purchased BPS Bioscience 79498; host or cells: baculovirus expression system
T1 sequence (O60674 536-812 V617F/W659A/W777A/F794H): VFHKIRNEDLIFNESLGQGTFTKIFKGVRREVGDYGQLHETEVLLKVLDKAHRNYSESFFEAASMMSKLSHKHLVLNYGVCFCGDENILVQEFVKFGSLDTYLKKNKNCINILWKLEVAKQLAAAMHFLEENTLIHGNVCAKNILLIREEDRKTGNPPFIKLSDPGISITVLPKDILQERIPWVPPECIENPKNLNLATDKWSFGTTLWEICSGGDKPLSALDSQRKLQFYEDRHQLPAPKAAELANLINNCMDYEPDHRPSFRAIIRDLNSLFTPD
Description: Example B. JAK2 LanthaScreen JH2-V617F Binding Assay
JAK2 JH2-V617F binding assay utilizes pseudo-kinase domain (JH2, amino-acids 536-812 with 3 surface mutations W659A, W777A, F794H) of human V617F mutant JAK2 expressed as C-terminal His-Avi-tagged, biotinylated protein in a baculovirus expression system (BPS Bioscience, Catalog #79498). The assay was conducted in black 384-well polystyrene plates in a final reaction volume of 20 μL. JAK2 JH2-V617F (0.26 nM) was incubated with compounds (100 nL serially diluted in DMSO) in the presence of 50 nM Fluorescent JAK2-JH2 Tracer (MedChem Express Catalog #HY-102055) and 0.25 nM Streptavidin-Tb cryptate (Cisbio Part #610SATLB) in assay buffer (50 mM Tris, pH=7.5, 10 mM MgCl2, 0.01% Brij-35, 0.1% BSA, 1 mM EGTA, 5% Glycerol and 5 mM DTT). Non-specific binding was accessed in the presence of 2 mM ATP. After incubation for 1 hour at 25° C., LanthaScreen signals were read on a PHERAstar FS plate reader (BMG LABTECH). Data was analyzed with IDBS XLfit and GraphPad Prism 5.0 software using a four parameter dose response curve to determine IC50 for each compound.

KIT [5] = test: KIT enzymatic assay; assay type: biochemical
Summary of the method: (§2)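 0.12 nM KIT with 1 mM ATP and 500 nM biotinylated TK substrate in 50 mM HEPES pH 7.0, 10 mM MgCl2, 1 mM DTT, 0.1 mM orthovanadate, 0.5% DMSO; 60 min at room temperature. TR-FRET 665/620 nm ratio; IC50 fitted from percent control activity versus log concentration.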

KIT [6] = target: KIT (Homo sapiens, UniProt P10721); test: KIT enzymatic assay; assay type: biochemical; details: 1 mM ATP
Sequence of KIT (Homo sapiens, UniProt P10721) (P10721 26-976, species assumed): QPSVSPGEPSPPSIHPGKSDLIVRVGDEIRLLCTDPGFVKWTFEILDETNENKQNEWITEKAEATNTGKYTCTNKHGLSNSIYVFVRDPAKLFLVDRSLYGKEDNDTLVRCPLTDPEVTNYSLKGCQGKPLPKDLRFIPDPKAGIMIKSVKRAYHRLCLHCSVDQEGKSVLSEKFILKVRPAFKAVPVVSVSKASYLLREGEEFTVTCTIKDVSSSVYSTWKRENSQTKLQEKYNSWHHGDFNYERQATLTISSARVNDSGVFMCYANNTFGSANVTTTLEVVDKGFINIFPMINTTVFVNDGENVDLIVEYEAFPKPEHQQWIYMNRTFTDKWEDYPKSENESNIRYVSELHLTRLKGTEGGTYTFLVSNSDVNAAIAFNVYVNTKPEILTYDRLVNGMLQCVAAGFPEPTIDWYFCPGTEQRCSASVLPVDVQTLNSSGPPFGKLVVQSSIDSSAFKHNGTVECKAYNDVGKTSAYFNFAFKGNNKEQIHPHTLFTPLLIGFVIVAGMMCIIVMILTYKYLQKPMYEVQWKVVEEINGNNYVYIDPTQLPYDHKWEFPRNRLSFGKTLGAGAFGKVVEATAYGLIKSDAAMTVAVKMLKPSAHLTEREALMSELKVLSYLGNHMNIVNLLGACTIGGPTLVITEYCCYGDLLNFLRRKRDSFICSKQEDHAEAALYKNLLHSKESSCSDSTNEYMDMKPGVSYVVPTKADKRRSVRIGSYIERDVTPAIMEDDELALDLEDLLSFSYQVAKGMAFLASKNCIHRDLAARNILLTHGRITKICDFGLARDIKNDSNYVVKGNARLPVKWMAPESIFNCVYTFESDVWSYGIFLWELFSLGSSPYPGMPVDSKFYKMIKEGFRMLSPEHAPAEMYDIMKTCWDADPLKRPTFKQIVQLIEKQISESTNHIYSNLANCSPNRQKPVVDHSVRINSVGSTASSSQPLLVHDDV
Summary of the method: as §2

Row | SMILES | h-IntCL [1] | Selectivity TRKA/JH2 V617F (TRKA [2]) | IC50 (TRKA [3]) [µM] | IC50 ([4]; Table A) [µM] | IC50 ([4]; Table C) [µM] | Selectivity KIT/JH2 V617F (KIT [5]) | IC50 (KIT [6]) [µM]
1 | [2H]C([2H])([2H])n1cc(-c2[nH]c3ncc4c(c3c2-c2ccc3c(c2)COC3(C)C)n([C@@H]2CC[C@@H](NC(=O)OC)C2)c(=O)n4C)c(F)n1 [Example 11, Methyl ((1R,3R)-3-(8-(1,1-dimethyl-1,3-dihydroisobenzofuran-5-yl)-7-(3-fluoro-1-(methyl-d3)-1H-pyrazol-4-yl)-3-methyl-2-oxo-3,6-dihydroimidazo[4,5-d]pyrrolo[2,3-b]pyridin-1(2H)-yl)cyclopentyl)carbamate] | ‡ ‡ (h-IntCL of ≥0.7 L/h/kg to ≤1 L/h/kg) | ****** (selectivity of >12500-fold) | > 2.5 | ≤ 0.01 | ≤ 0.01 | ****** (selectivity of >12500-fold) | > 2.5
2 | [2H]C([2H])([2H])n1cc(-c2[nH]c3ncc4c(c3c2-c2ccc(C(C)(C)O)cc2)n([C@@H]2CC[C@@H](NC(=O)OC)C2)c(=O)n4C([2H])([2H])[2H])c(F)n1 [Example 10, Methyl ((1R,3R)-3-(7-(3-fluoro-1-(methyl-d3)-1H-pyrazol-4-yl)-8-(4-(2-hydroxypropan-2-yl)phenyl)-3-(methyl-d3)-2-oxo-3,6-dihydroimidazo[4,5-d]pyrrolo[2,3-b]pyridin-1(2H)-yl)cyclopentyl)carbamate] | ‡ ‡ (h-IntCL of ≥0.7 L/h/kg to ≤1 L/h/kg) | ****** (selectivity of >12500-fold) | > 2.5 | ≤ 0.01 | ≤ 0.01 | *** (selectivity of >1500-fold to ≤1750-fold) | 0.25 to 1.25
3 | COC(=O)N[C@@H]1CC[C@@H](n2c(=O)n(C)c3cnc4[nH]c(-c5cn(C)nc5OC)c(-c5ccccc5)c4c32)C1 [Example 2, Methyl ((1R,3R)-3-(7-(3-methoxy-1-methyl-1H-pyrazol-4-yl)-3-methyl-2-oxo-8-phenyl-3,6-dihydroimidazo[4,5-d]pyrrolo[2,3-b]pyridin-1(2H)-yl)cyclopentyl)carbamate] | ‡ ‡ (h-IntCL of ≥0.7 L/h/kg to ≤1 L/h/kg) | **** (selectivity of >1750-fold to ≤5000-fold) | > 2.5 | ≤ 0.01 | ≤ 0.01 | **** (selectivity of >1750-fold to ≤5000-fold) | > 2.5
4 | [2H]C([2H])([2H])n1cc(-c2[nH]c3ncc4c(c3c2-c2ccc3c(cnn3C(C)C)c2)n([C@@H]2CC[C@@H](NC(=O)OC)C2)c(=O)n4C([2H])([2H])[2H])c(F)n1 [Example 13, Methyl ((1R,3R)-3-(7-(3-fluoro-1-(methyl-d3)-1H-pyrazol-4-yl)-8-(1-isopropyl-1H-indazol-5-yl)-3-(methyl-d3)-2-oxo-3,6-dihydroimidazo[4,5-d]pyrrolo[2,3-b]pyridin-1(2H)-yl)cyclopentyl)carbamate] | ‡ ‡ (h-IntCL of ≥0.7 L/h/kg to ≤1 L/h/kg) | ****** (selectivity of >12500-fold) | > 2.5 | ≤ 0.01 | ≤ 0.01 | **** (selectivity of >1750-fold to ≤5000-fold) | 0.25 to 1.25
5 | [2H]C([2H])([2H])n1cc(-c2[nH]c3ncc4c(c3c2-c2ccc3c(cnn3C(C)C)c2)n([C@@H]2CC[C@@H](NC(=O)OC)C2)c(=O)n4C)c(F)n1 [Example 16, Methyl ((1R,3R)-3-(7-(3-fluoro-1-(methyl-d3)-1H-pyrazol-4-yl)-8-(1-isopropyl-1H-indazol-5-yl)-3-methyl-2-oxo-3,6-dihydroimidazo[4,5-d]pyrrolo[2,3-b]pyridin-1(2H)-yl)cyclopentyl)carbamate] | ‡ ‡ (h-IntCL of ≥0.7 L/h/kg to ≤1 L/h/kg) | ****** (selectivity of >12500-fold) | > 2.5 | ≤ 0.01 | ≤ 0.01 | ****** (selectivity of >12500-fold) | 1.25 to 2.5
6 | [2H]C([2H])([2H])n1cc(-c2[nH]c3ncc4c(c3c2-c2cc(F)c3c(cnn3C([2H])([2H])[2H])c2)n([C@@H]2CC[C@@H](NC(=O)OC)C2)c(=O)n4C([2H])([2H])[2H])c(F)n1 [Example 17, Methyl ((1R,3R)-3-(8-(7-fluoro-1-(methyl-d3)-1H-indazol-5-yl)-7-(3-fluoro-1-(methyl-d3)-1H-pyrazol-4-yl)-3-(methyl-d3)-2-oxo-3,6-dihydroimidazo[4,5-d]pyrrolo[2,3-b]pyridin-1(2H)-yl)cyclopentyl)carbamate] | ‡ ‡ (h-IntCL of ≥0.7 L/h/kg to ≤1 L/h/kg) | ****** (selectivity of >12500-fold) | > 2.5 | ≤ 0.01 | ≤ 0.01 | ****** (selectivity of >12500-fold) | 1.25 to 2.5
7 | [2H]C([2H])([2H])Oc1ccc(-c2c(-c3cn(C([2H])([2H])[2H])nc3F)[nH]c3ncc4c(c23)n([C@@H]2CC[C@@H](NC(=O)OC)C2)c(=O)n4C([2H])([2H])[2H])cc1 [Example 9, Methyl ((1R,3R)-3-(7-(3-fluoro-1-(methyl-d3)-1H-pyrazol-4-yl)-8-(4-(methoxy-d3)phenyl)-3-(methyl-d3)-2-oxo-3,6-dihydroimidazo[4,5-d]pyrrolo[2,3-b]pyridin-1(2H)-yl)cyclopentyl)carbamate] | ‡ ‡ (h-IntCL of ≥0.7 L/h/kg to ≤1 L/h/kg) | ***** (selectivity of >5000-fold to ≤12500-fold) | 1.25 to 2.5 | ≤ 0.01 | ≤ 0.01 | *** (selectivity of >1500-fold to ≤1750-fold) | 0.25 to 1.25
8 | COC(=O)N[C@@H]1CC[C@@H](n2c(=O)n(C)c3cnc4[nH]c(-c5cn(C)nc5OC)c(-c5cccc(F)c5)c4c32)C1 [Example 3, Methyl ((1R,3R)-3-(8-(3-fluorophenyl)-7-(3-methoxy-1-methyl-1H-pyrazol-4-yl)-3-methyl-2-oxo-3,6-dihydroimidazo[4,5-d]pyrrolo[2,3-b]pyridin-1(2H)-yl)cyclopentyl)carbamate] | ‡ ‡ (h-IntCL of ≥0.7 L/h/kg to ≤1 L/h/kg) | **** (selectivity of >1750-fold to ≤5000-fold) | 1.25 to 2.5 | ≤ 0.01 | ≤ 0.01 | **** (selectivity of >1750-fold to ≤5000-fold) | 1.25 to 2.5
9 | COC(=O)N[C@@H]1CC[C@@H](n2c(=O)n(C)c3cnc4[nH]c(-c5cn(C)nc5OC)c(-c5ccc(OC)c(F)c5)c4c32)C1 [Example 4, Methyl ((1R,3R)-3-(8-(3-fluoro-4-methoxyphenyl)-7-(3-methoxy-1-methyl-1H-pyrazol-4-yl)-3-methyl-2-oxo-3,6-dihydroimidazo[4,5-d]pyrrolo[2,3-b]pyridin-1(2H)-yl)cyclopentyl)carbamate] | ‡ (h-IntCL of <0.7 L/h/kg) | ***** (selectivity of >5000-fold to ≤12500-fold) | > 2.5 | ≤ 0.01 | ≤ 0.01 | ****** (selectivity of >12500-fold) | > 2.5
